Test results: ChEMBL document CHEMBL6078714, “Discovery of N-Trifluoromethylated Noscapines as Novel and Potent Agents for the Treatment of Glioblastoma” (J Med Chem, 2025)
Calls of active or inactive are those of the source. The rule behind the calls is not given here.

How the values were obtained:
U-118-MG [1] = assay: Antiproliferative activity against human U-118-MG cells assessed as inhibition of cell proliferation incubated for 72 hrs by CCK8 assay; format: functional, cell-based
U-118-MG [2] = assay: Cell cycle arrest in human U-118-MG cells assessed as accumulation of cells at G1 phase at 3 uM incubated for 24 hrs by flow cytometric analysis (reference value: 56.2 %); format: functional
[3] = Observed volume of distribution in Sprague-Dawley rat at 5 mg/kg, ip; format: ADME, organism-based; conditions: in vivo
[4] = Toxicity in male BALB/c nude mouse xenografted with human U-118-MG cells assessed as effect on serum urea level at 2.5 to 10 mg/kg, ip administered daily for 4 weeks; format: organism-based; conditions: in vivo, 672 h, dose 2.5-10 mg/kg
[5] = Stability of compound in sodium phosphate buffer at pH 7.4 measured after 48 hrs by 1H NMR analysis; format: physicochemical; conditions: pH 7.4, 48 h
U-118-MG [6] = assay: Cell cycle arrest in human U-118-MG cells assessed as accumulation of cells at G2 phase at 3 uM incubated for 24 hrs by flow cytometric analysis (reference value: 30.6 %); format: functional
[7] = AUC (0 to 24 hrs) in Sprague-Dawley rat at 5 mg/kg, ip; format: ADME, organism-based; conditions: in vivo
[8] = Half-life in Sprague-Dawley rat at 5 mg/kg, ip; format: ADME, organism-based; conditions: in vivo
U-118-MG [9] = assay: Induction of apoptosis in human U-118-MG cells assessed as downregulation of c-Myc expression level at 1 to 40 uM incubated for 24 hrs by Western blot analysis; format: functional, cell-based; conditions: dose 1-40 µM
[10] = Stability of compound in sodium carbonate buffer at pH 10 measured after 48 hrs by 1H NMR analysis; format: physicochemical; conditions: pH 10, 48 h
[11] = Toxicity in male BALB/c nude mouse xenografted with human U-118-MG cells assessed as metastasis in spleen at 2.5 to 10 mg/kg, ip administered daily for 4 weeks by H and E staining based analysis; format: organism-based; conditions: in vivo, 672 h, dose 2.5-10 mg/kg
[12] = Toxicity in male BALB/c nude mouse xenografted with human U-118-MG cells assessed as metastasis in liver at 2.5 to 10 mg/kg, ip administered daily for 4 weeks by H and E staining based analysis; format: organism-based; conditions: in vivo, 672 h, dose 2.5-10 mg/kg
[13] = Toxicity in male BALB/c nude mouse xenografted with human U-118-MG cells assessed as body weight loss at 2.5 to 10 mg/kg, ip administered daily for 4 weeks; format: organism-based; conditions: in vivo, 672 h, dose 2.5-10 mg/kg
Tubulin (Homo sapiens) = Tubulin (Homo sapiens) (UniProt P68371+Q9H4B7+P0DPH7+P68366+Q13509+Q71U36+P04350+Q3ZCM7+P07437+P68363+Q9BQE3+Q6PEY2+Q13885+Q9BVA1+Q9BUF5); assay: Disruption of tubulin polymerization in human U-118-MG cells at 3 to 20 uM by DAPI staining based immunofluorescence analysis; format: cell-based; conditions: dose 3-20 µM
U-87 MG = assay: Antiproliferative activity against human U-87 MG cells assessed as inhibition of cell proliferation incubated for 72 hrs by CCK8 assay; format: functional, cell-based, U-87MG ATCC
U-118-MG [14] = assay: Antitumor activity against human U-118-MG cells xenografted in male BALB/c nude mouse assessed as tumor growth inhibition at 2.5 mg/kg, ip administered daily for 4 weeks relative to control; format: functional; conditions: 672 h, read-out: TGI
[15] = Toxicity in male BALB/c nude mouse xenografted with human U-118-MG cells assessed as metastasis in heart at 2.5 to 10 mg/kg, ip administered daily for 4 weeks by H and E staining based analysis; format: organism-based; conditions: in vivo, 672 h, dose 2.5-10 mg/kg
[16] = Toxicity in male BALB/c nude mouse xenografted with human U-118-MG cells assessed as metastasis in kidney at 2.5 to 10 mg/kg, ip administered daily for 4 weeks by H and E staining based analysis; format: organism-based; conditions: in vivo, 672 h, dose 2.5-10 mg/kg
U-118-MG [17] = assay: Inhibition of cell migration in human U-118-MG cells assessed as decrease in number of migrating cells at 0.1 uM incubated for 24 hrs by transwell assay; format: functional, cell-based
U-118-MG [18] = assay: Cell cycle arrest in human U-118-MG cells assessed as accumulation of cells at G1 phase at 30 uM incubated for 24 hrs by flow cytometric analysis (reference value: 56.2 %); format: functional
U-118-MG [19] = assay: Cell cycle arrest in human U-118-MG cells assessed as accumulation of cells at S phase at 10 uM incubated for 24 hrs by flow cytometric analysis (reference value: 10.7 %); format: functional
[20] = Toxicity in male BALB/c nude mouse xenografted with human U-118-MG cells assessed as effect on serum creatinine level at 2.5 to 10 mg/kg, ip administered daily for 4 weeks; format: organism-based; conditions: in vivo, 672 h, dose 2.5-10 mg/kg
[21] = Stability of compound in 0.1M HCl solution at pH 1.0 assessed as parent compound remaining measured after 48 hrs by 1H NMR analysis; format: physicochemical; conditions: read-out: Stability
[22] = Toxicity in male BALB/c nude mouse xenografted with human U-118-MG cells assessed as metastasis in lung at 2.5 to 10 mg/kg, ip administered daily for 4 weeks by H and E staining based analysis; format: organism-based; conditions: in vivo, 672 h, dose 2.5-10 mg/kg
U-118-MG [23] = assay: Antiproliferative activity against human U-118- MG cells assessed as inhibition of cell proliferation at 10 uM by crystal violet staining based analysis; format: functional
[24] = Drug distribution in Sprague-Dawley rat plasma at 5 mg/kg, ip measured after 0.5 hrs; format: ADME, organism-based
[25] = Cmax in Sprague-Dawley rat at 5 mg/kg, ip; format: ADME, organism-based; conditions: in vivo
U-118-MG [26] = assay: Inhibition of cell migration in human U-118-MG cells at 0.1 to 10 uM incubated for 24 hrs by microscopy based wound healing assay; format: functional; conditions: dose 0.1-10 µM
[27] = Ratio of drug concentration in Sprague-Dawley rat brain to plasma at 5 mg/kg, ip measured after 0.5 hrs; format: ADME, organism-based; conditions: read-out: BPR
[28] = Drug distribution in Sprague-Dawley rat brain at 5 mg/kg, ip measured after 0.5 hrs; format: ADME, organism-based; conditions: read-out: Ct
U-118-MG [29] = assay: Cell cycle arrest in human U-118-MG cells assessed as accumulation of cells at G1 phase at 20 uM incubated for 24 hrs by flow cytometric analysis (reference value: 56.2 %); format: functional
[30] = Tmax in Sprague-Dawley rat at 5 mg/kg, ip; format: ADME, organism-based; conditions: in vivo
U-118-MG [31] = assay: Antitumor activity against human U-118-MG cells xenografted in male BALB/c nude mouse assessed as tumor growth inhibition at 10 mg/kg, ip administered daily for 4 weeks relative to control; format: functional; conditions: 672 h, read-out: TGI
U-118-MG [32] = assay: Antiproliferative activity against human U-118- MG cells assessed as inhibition of cell proliferation by crystal violet staining based analysis; format: functional; conditions: dose 10-40 µM
[33] = Drug distribution in Sprague-Dawley rat plasma at 5 mg/kg, ip measured after 4 hrs; format: ADME, organism-based
[34] = Drug distribution in Sprague-Dawley rat brain at 5 mg/kg, ip measured after 4 hrs; format: ADME, organism-based; conditions: read-out: Ct
U-118-MG [35] = assay: Induction of apoptosis in human U-118-MG cells assessed as downregulation of Bcl-XL expression level at 1 to 40 uM incubated for 24 hrs by Western blot analysis; format: functional, cell-based; conditions: dose 1-40 µM
U-118-MG [36] = assay: Cell cycle arrest in human U-118-MG cells assessed as accumulation of cells at G2 phase at 20 uM incubated for 24 hrs by flow cytometric analysis (reference value: 30.6 %); format: functional
[37] = Observed clearance in Sprague-Dawley rat at 5 mg/kg, ip; format: ADME, organism-based; conditions: in vivo

Structure (SMILES): COc1ccc2c(c1OC)C(=O)O[C@@H]2[C@H]1c2c(c(Br)c3c(c2OC)OCO3)CCN1C(F)(F)F
- IC50 (U-118-MG [1]): 1.55 µM
- Activity (U-118-MG [2]): 55.7%
- Vd [3]: 65.2 L/kg
- Activity [4]: Non-toxic
- Stability [5]: Stable
- Activity (U-118-MG [6]): 31.7%
- AUC [7]: 661 ng·h/mL
- half-life [8]: 5.64 h
- Activity (U-118-MG [9]): Active
- Stability [10]: Stable
- Activity [11]: Non-toxic
- Activity [12]: Non-toxic
- Activity [13]: Non-toxic
- Activity (Tubulin (Homo sapiens)): Active
- IC50 (U-87 MG): 7.46 µM
- inhibition in vivo at 2.5 mg/kg (U-118-MG [14]): 34.4%
- Activity [15]: Non-toxic
- Activity [16]: Non-toxic
- inhibition (U-118-MG [17]): Active
- Activity (U-118-MG [18]): 29.5%
- Activity (U-118-MG [19]): 9.24%
- Activity [20]: Non-toxic
- remaining at 48 h [21]: 86%
- Activity [22]: Non-toxic
- Activity (U-118-MG [23]): Active
- concentration at 0.5 h [24]: 99.6 ng/mL
- Cmax [25]: 152 ng/mL
- inhibition (U-118-MG [26]): Active
- Kp at 0.5 h [27]: 0.349
- concentration at 0.5 h [28]: 35.4 ng/g
- Activity (U-118-MG [29]): 48.3%
- Tmax [30]: 0.5 h
- inhibition in vivo at 10 mg/kg (U-118-MG [31]): 38.5%
- Activity (U-118-MG [32]): Dose-dependent-effect
- concentration at 4 h [33]: 69.4 ng/mL
- concentration at 4 h [34]: 34.5 ng/g
- Activity (U-118-MG [35]): Active
- Activity (U-118-MG [36]): 40%
- CL [37]: 135 mL/min/kg
